Data as given in BigSolDB 2.1.

CC(=O)c1ccc2ccccc2c1O
Details | solubility (mole fraction)
in cyclohexane, 292.4 K | 0.0076
in cyclohexane, 296.55 K | 0.0092
in cyclohexane, 300.65 K | 0.0114
in cyclohexane, 304.9 K | 0.014
in cyclohexane, 308.6 K | 0.0173
in cyclohexane, 313.55 K | 0.0222
in cyclohexane, 318.5 K | 0.0285
in cyclohexane, 324.75 K | 0.0382
in cyclohexane, 329.65 K | 0.0511
in cyclohexane, 333.95 K | 0.0679
in cyclohexane, 337.6 K | 0.0872
in cyclohexane, 340.65 K | 0.109
in ethanol, 289.15 K | 0.0049
in ethanol, 292.6 K | 0.0055
in ethanol, 296.25 K | 0.0064
in ethanol, 299.95 K | 0.0075
in ethanol, 304.55 K | 0.0089
in ethanol, 307.95 K | 0.0104
in ethanol, 310.55 K | 0.0117
in ethanol, 312.9 K | 0.013
in ethanol, 316.4 K | 0.015
in ethanol, 319.6 K | 0.0174
in ethanol, 323.4 K | 0.0207
in ethanol, 327.35 K | 0.025
in ethanol, 331.2 K | 0.0313
in ethanol, 334.95 K | 0.0399
in ethanol, 338.65 K | 0.052
in ethanol, 342.25 K | 0.0696
in n-butanol, 280.85 K | 0.0054
in n-butanol, 285.65 K | 0.0065
in n-butanol, 291.55 K | 0.0084
in n-butanol, 295.65 K | 0.0101
in n-butanol, 299.45 K | 0.012
in n-butanol, 303.75 K | 0.0144
in n-butanol, 308.25 K | 0.0179
in n-butanol, 312.75 K | 0.0219
in n-butanol, 318.65 K | 0.0291
in n-butanol, 325.85 K | 0.0431
in n-butanol, 328.95 K | 0.0523
in n-butanol, 332.65 K | 0.0648
in n-butanol, 335.75 K | 0.0788
in n-butanol, 336.45 K | 0.0831
in n-heptane, 290.65 K | 0.008
in n-heptane, 295.25 K | 0.0099
in n-heptane, 299.9 K | 0.0123
in n-heptane, 304.65 K | 0.0153
in n-heptane, 310.15 K | 0.019
in n-heptane, 315.4 K | 0.0239
in n-heptane, 321.65 K | 0.0306
in n-heptane, 327.2 K | 0.0395
in n-heptane, 332.65 K | 0.05
in n-heptane, 338.55 K | 0.0627
in n-heptane, 344.35 K | 0.0898
in n-heptane, 348.35 K | 0.116
in n-hexane, 281.65 K | 0.0045
in n-hexane, 286.55 K | 0.0056
in n-hexane, 289.75 K | 0.0065
in n-hexane, 293.45 K | 0.0077
in n-hexane, 297.35 K | 0.0091
in n-hexane, 301.95 K | 0.0107
in n-hexane, 305.45 K | 0.0129
in n-hexane, 309.95 K | 0.0156
in n-hexane, 314.25 K | 0.0189
in n-hexane, 319.55 K | 0.0236
in n-hexane, 324.05 K | 0.0288

CC(=O)c1c(O)ccc2ccccc12
Details | solubility (mole fraction)
in cyclohexane, 292.9 K | 0.0181
in cyclohexane, 296.6 K | 0.0229
in cyclohexane, 300.7 K | 0.0292
in cyclohexane, 304.8 K | 0.0379
in cyclohexane, 308.85 K | 0.0505
in cyclohexane, 312.6 K | 0.068
in cyclohexane, 316.25 K | 0.0957
in cyclohexane, 318.95 K | 0.132
in cyclohexane, 320.35 K | 0.162
in cyclohexane, 321.85 K | 0.19
in ethanol, 285.7 K | 0.0615
in ethanol, 288.9 K | 0.0712
in ethanol, 293.05 K | 0.0859
in ethanol, 297 K | 0.104
in ethanol, 301.15 K | 0.135
in ethanol, 304.55 K | 0.168
in ethanol, 310.05 K | 0.234
in ethanol, 314.65 K | 0.321
in n-butanol, 282.55 K | 0.0555
in n-butanol, 288.55 K | 0.0724
in n-butanol, 293.35 K | 0.0897
in n-butanol, 299 K | 0.117
in n-butanol, 303.95 K | 0.155
in n-butanol, 307.95 K | 0.201
in n-butanol, 311.75 K | 0.257
in n-butanol, 314.95 K | 0.328
in n-butanol, 317.35 K | 0.389
in n-butanol, 318.15 K | 0.408
in n-heptane, 288.75 K | 0.0133
in n-heptane, 293.15 K | 0.0163
in n-heptane, 296.95 K | 0.0198
in n-heptane, 301.8 K | 0.0239
in n-heptane, 302.4 K | 0.0245
in n-heptane, 306.55 K | 0.0305
in n-heptane, 312.05 K | 0.0404
in n-heptane, 317.15 K | 0.056
in n-heptane, 322.05 K | 0.079
in n-heptane, 326.05 K | 0.115
in n-heptane, 328.45 K | 0.166
in n-heptane, 329.25 K | 0.214
in n-hexane, 283.75 K | 0.0082
in n-hexane, 289.25 K | 0.0107
in n-hexane, 295.55 K | 0.0141
in n-hexane, 299.25 K | 0.0175
in n-hexane, 305.2 K | 0.0242
in n-hexane, 310.6 K | 0.032
in n-hexane, 311.45 K | 0.0339
in n-hexane, 314.8 K | 0.0414
in n-hexane, 319.05 K | 0.0529
in n-hexane, 323.45 K | 0.0716
